Test results published in PMC4226669, “Anti-cancer potency of tasquinimod is enhanced via albumin-binding facilitating increased uptake in the tumor microenvironment” (Oncotarget, 2014).
Read-outs that look alike come from different tables or passages of the source.

Key:
[1] = Protein binding fraction (PBF) in bovine fetal serum; type: in vitro ADME; conditions: bovine fetal serum (FBS), 1-50 μM radiolabeled tasquinimod
Protocol: An explanation for this highly restricted cellular uptake in the blood is provided by the fact that protein binding fraction (PBF) for tasquinimod in nude mouse plasma is 98 ± 1%. This is not a nude mouse specific effect since incubation of 1-50 μM radiolabeled tasquinimod with human plasma or bovine fetal serum (FBS) results in a PBF of ~ 98%.
Mice were orally gavaged with ^14C-labeled tasquinimod at a dose of 5mg/kg and 1 hour later blood collected and plasma isolated and the PBF determined as described previously using Centrifree® YM-30 centrifuge filter unit with a molecular weight cutoff of 30K (i.e., Millipore, Billerica,MO).

[2] = Nadir plasma concentration after 5 days oral dosing in C57Bl/6J mice; type: in vivo, mouse; conditions: 5 mg/kg/day oral gavage, end of 5 days
Protocol: To determine whether this chronic 5 mg/kg/day oral dosing regimen produces similar blood concentrations in mice as obtained in human trials, intact adult male C57Bl/6J mice (n=4) were given ^14C- radiolabeled tasquinimod via oral gavage and then the plasma concentration of drug at the end of 5 days determined based upon radioactivity levels.

[3] = Tissue distribution and metabolites in nude mice bearing CWR-22Rv1 cancers; type: in vivo, mouse; conditions: for concentration at 4 h: male, nude, mouse
Protocol: To determine the concentration of metabolites, nude mice bearing CWR-22Rv1 prostate cancers were orally administered with 5 mg/kg of ^14C- radiolabeled tasquinimod and 4 and 24 hours later, blood plasma and liver, kidney, and cancer tissue harvested and analyzed for determination of metabolites. […] The predominant metabolite is the O-demethylated quinoline compound, Figure 2A&B, but the concentration of the hydroxylated aromatic quinoline and the N-demethylated quinoline compounds, along with the O-demethylated quinoline compound are also higher in the liver than the blood at the time point studied, Figure 2B. Also in the kidney 40% of the drug is present as metabolites, with the concentration of the hydroxylated aromatic quinoline and the O-demethylated quinoline compounds being higher than in the blood, Figure 2B. In contrast, within the cancer > 80% of the total concentration of drug is present as parent tasquinimod, Figure 2B. Only the O-demethylated quinoline compound is present at a higher concentration in the cancer than blood, Figure 2B. The plasma concentration of total metabolites is < 10% at 4 hours, Figure 2B, and 24 hours post oral dosing with 5 mg/kg, Figure 2A.
Male nude mice bearing 200-300mm^3 CWR-22Rv1 cancers were given ^14C-labeled tasquinimod at a dose of 5 mg/kg via oral gavage. At times ranging from 30 min to 24 hour, groups of 4-6 mice were anaesthetized with ketamine and 1 ml of heparinized blood collected by cardiac puncture, followed by subsequent cardiac perfusion of saline to remove blood associated drug. An aliquot of liver, kidney, and cancer was removed, weighed and then homogenized. The radioactivity in 10 μL aliquots of tissue homogenates and blood plasma was determined using a liquid scintillation counter and used to calculate the total amount of tasquinimod plus its metabolites per gram of tissue or per ml of blood. The remaining sample volume was deproteinated with acetonitrile and the radioactivity of an aliquot of the supernatant determined and the remaining supernatant lyophilized, resuspended initially with 0.1mL dimethyl sulfoxide and diluted by the addition of 0.9mL deionized water prior to injection into the HPLC. The HPLC system consisted of Waters pumps using a Waters gradient controller to deliver mobile phase at a flow rate of 1mL per minute using a Supelcosil ABZ+ C18 column that is 150mm long by 4.6mm diameter and has 5μm particle size. The metabolites were separated using a linear gradient in which the starting mobile phase was 35% acetonitrile: 65% water: 0.1% Trifluoroacetic acid (TFA) increasing to 50% acetonitrile: 50% water: 0.1%TFA over 25 minutes, and then increased rapidly to 98% acetonitrile: 2% water: 0.1%TFA and held until 33 minutes before it is returned to the initial conditions for the next run. Fractions were collected and the radioactivity determined by scintillation counting. As controls, the individual elution time of non-radiolabeled standard solutions of the various tasquinimod metabolites was determined using UV absorption at 215nm. The results were expressed as concentration based upon tissue volume, assuming 1gram wet weight equals 1ml, or normalized to tissue vascular volume.

[4] = tested on: TRAMP-C2 mouse prostate cancer; experiment: TRAMP-C2 cancer growth and blood vessel density in syngeneic mice; type: in vivo; conditions: 5 mg/kg/day via the drinking water
Text: Tasquinimod's oral potency is not restricted to human prostate cancer xenografts growing in immune-suppressed mice.
The source, history, and characteristics of the human prostate cancer cell lines (i.e., LNCaP, LAPC4, and CWR-22Rv1 and the human umbilical vascular endothelial cells (HUVEC) used, as well as cell culture conditions for their in vitro maintenance and the in vivo protocol for their xenografting into immune-deficient nude male mice are as described previously. The source, history, and characteristics of the TRAMP-C2 mouse prostate cancer line, as well as cell culture conditions for their in vitro maintenance and the in vivo protocol for their growth in intact adult male syngeneic C57Bl/6J are as described previously. All lines were mycoplasma negative using the MycoSensor PCR Assay kit (Agilent Technologies) and genetically authenticated within the last 6 months using short tandem repeat profiling conducted by the Johns Hopkins Genetic Resource Core Facility. The source, history, and characteristics of the CWR-RH human prostate cancer xenograft are as described previously. In vitro growth curves were determined as described. Animal studies were conducted according to animal protocol MO09M434 approved by Johns Hopkins Animal Care and Use Committee. […]

[5] = tested on: HUVEC and CWR-22Rv1, LAPC-4, LNCaP cells; experiment: In vitro cell metabolism in HUVEC and 3 prostate cancer cell lines; type: in vitro ADME, human; conditions: 48 hours, 1 μM, confluent cell density
Text: Since tasquinimod binds to both S100A9 and HDAC4 proteins with high affinities and since S100A9 has both an extracellular and intracellular location while HDAC4 in prostate cancer cells is in the cell nucleus, it is important to evaluate whether tasquinimod is capable of entering cells or whether it only associates with extracellular plasma membrane components. To resolve this question, an in vitro approach was taken using three human prostate cancer cells (i.e., CWR-22Rv1, LAPC-4, and LNCaP) and human umbilical vein endothelial (HUVEC) cells. When 1 μM tasquinimod is added to 10% fetal bovine serum (FBS) supplemented media, there is sufficient albumin to bind 80% of the drug so that the protein-free concentration of tasquinimod in such media is only 0.2 μM. Preliminary studies documented that even after 48 hours of exposure of HUVEC and each of the 3 prostate cancer cell lines to 1 μM at confluent cell density, there was < 15% metabolism of the parental tasquinimod drug with the major metabolite being the O-demethylated quinoline compound.
For in vitro studies, cells were incubated with 1μM ^14C-labeled tasquinimod for indicated time period and then the media and cells or cell nuclei separately harvested, deproteinated with acetonitrile, and metabolites separated by HPLC and quantitated as described above.

COc1cccc2c1c(O)c(C(=O)N(C)c1ccc(C(F)(F)F)cc1)c(=O)n2C [Tasquinimod]
fraction unbound [1]: ~0.02 | nadir plasma concentration [2]: 1.08 ± 0.21 µM | prostate cancer tissue concentration relative to liver or kidney, normalized to percent vascular volume ([3]; 5 mg/kg oral): 3-5 fold | time to maximum total drug concentration in liver, kidney and cancer ([3]; 5 mg/kg oral, CWR-22Rv1 tumor bearing mice): ≤ 5 h | total drug within the cancer present as parent tasquinimod ([3]; CWR-22Rv1 cancer, 4 hours post 5 mg/kg oral): > 80% | percentage of total drug in CWR-22Rv1 cancer ([3]; CWR-22Rv1 cancer, 4 hours post oral 5mg/kg tasquinimod): 83+/-6% | percentage of total drug in kidney ([3]; kidney, 4 hours post oral 5mg/kg tasquinimod): 60+/-7% | percentage of total drug in liver ([3]; liver, 4 hours post oral 5mg/kg tasquinimod): 29+/-5% | concentration at 4 h ([3]; CWR-22Rv1 cancer tissue, CWR-22Rv1 cancer, 4 hours post oral 5mg/kg tasquinimod, 1gm tissue = 1ml, read-out: concentration in CWR-22Rv1 cancer): 2.24 µM | concentration at 4 h ([3]; kidney, 4 hours post oral 5mg/kg tasquinimod, 1gm tissue = 1ml, read-out: concentration in kidney): 2.3 µM | concentration at 4 h ([3]; liver, 4 hours post oral 5mg/kg tasquinimod, 1gm tissue = 1ml, read-out: concentration in liver): 3.77 µM | concentration at 4 h ([3]; plasma, 4 hours post oral 5mg/kg tasquinimod, read-out: concentration in plasma): 5.58 µM | percentage of total drug in plasma ([3]; plasma, 4 hours post oral 5mg/kg tasquinimod): 93+/-6% | inhibition of TRAMP-C2 mouse prostate cancer growth ([4]; immune-competent syngeneic mice): > 80% | inhibition of blood vessel density within the TRAMP-C2 cancers ([4]; treated vs. control): 75 ± 9% | metabolism of the parental drug [5]: < 15%
